Consider 19 compounds from patent publication US20230310428A1, “EGFR INHIBITOR AND PREPARATION METHOD AND USE THEREOF” (HONGYUN BIOTECH CO., LTD., priority 2020, published 2023).

Where only a bound is given, the exact number is not on record here.

What all share (test): Growth inhibitory activity of compounds on BaF3 cell lines stably transfected with kinase (MTS, 48 h)
Holding throughout (type): cell-based

For experiment [1], the target named is T1, various mutants of kinase EGFR (BaF3 cell lines stably transfected with kinase) (Homo sapiens, UniProt P00533).
T1 construct: other: BaF3 cells stably transfected with EGFR Δ19Del; MTS, 48 h; other: BaF3 cell line stably transfected with EGFR Δ19Del
The note with it: BaF3 cells stably transfected with EGFR Δ19Del, read-out: IC50, growth inhibition, Δ19Del. Summed up: (§1)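 BaF3 cells stably transfected with EGFR mutants were exposed for 48 h at 37°C to 8 compound concentrations (top 10 µM, 1/3 dilutions, 0.1% DMSO). Growth was read by MTS at 490 nm after 1-4 h, in duplicate; IC50 was derived from inhibition rates versus DMSO control.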

The target in experiment [2] is T2, various mutants of kinase EGFR (BaF3 cell lines stably transfected with kinase) (Homo sapiens, UniProt P00533, C797S/L858R/T790M).
T2 construct: expressed in transfected cells; host or cells: BaF3
T2 sequence (P00533 25-1210 T790M/C797S/L858R): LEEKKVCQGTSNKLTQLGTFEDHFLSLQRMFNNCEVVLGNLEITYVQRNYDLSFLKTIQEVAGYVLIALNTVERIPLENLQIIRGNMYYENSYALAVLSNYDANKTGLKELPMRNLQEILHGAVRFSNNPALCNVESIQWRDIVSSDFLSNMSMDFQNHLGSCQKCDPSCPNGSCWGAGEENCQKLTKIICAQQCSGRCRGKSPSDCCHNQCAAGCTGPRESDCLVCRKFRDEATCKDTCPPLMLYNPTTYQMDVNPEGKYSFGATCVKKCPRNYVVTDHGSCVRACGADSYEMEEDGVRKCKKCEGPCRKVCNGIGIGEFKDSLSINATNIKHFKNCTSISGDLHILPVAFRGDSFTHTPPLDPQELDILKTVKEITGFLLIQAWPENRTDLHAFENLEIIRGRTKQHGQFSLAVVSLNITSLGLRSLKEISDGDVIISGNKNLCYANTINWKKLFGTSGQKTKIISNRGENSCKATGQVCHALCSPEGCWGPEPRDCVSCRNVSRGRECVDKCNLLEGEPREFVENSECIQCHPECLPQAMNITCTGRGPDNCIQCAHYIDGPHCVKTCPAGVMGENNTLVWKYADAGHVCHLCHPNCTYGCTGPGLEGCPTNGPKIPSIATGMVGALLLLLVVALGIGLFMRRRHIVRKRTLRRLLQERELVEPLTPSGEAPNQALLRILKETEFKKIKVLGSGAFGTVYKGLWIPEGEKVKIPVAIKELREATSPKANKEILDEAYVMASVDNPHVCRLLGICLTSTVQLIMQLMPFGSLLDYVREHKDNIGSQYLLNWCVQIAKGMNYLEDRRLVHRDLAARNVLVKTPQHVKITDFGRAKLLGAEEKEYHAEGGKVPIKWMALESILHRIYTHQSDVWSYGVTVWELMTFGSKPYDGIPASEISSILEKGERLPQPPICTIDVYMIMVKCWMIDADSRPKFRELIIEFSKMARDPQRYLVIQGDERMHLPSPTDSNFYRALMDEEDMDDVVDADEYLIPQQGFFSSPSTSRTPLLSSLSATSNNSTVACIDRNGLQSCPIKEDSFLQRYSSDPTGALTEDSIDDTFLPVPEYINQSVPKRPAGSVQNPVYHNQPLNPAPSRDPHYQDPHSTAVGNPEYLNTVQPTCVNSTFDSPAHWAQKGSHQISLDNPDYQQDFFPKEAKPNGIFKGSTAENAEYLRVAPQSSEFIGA
The note with it: BaF3 cells stably transfected with EGFR L858R/T790M/C797S, read-out: IC50, growth inhibition, L858R/T790M/C797S. Put shortly: as §1

For experiment [3], the target named is T3, various mutants of kinase EGFR (BaF3 cell lines stably transfected with kinase) (Homo sapiens, UniProt P00533, L858R).
T3 construct: expressed in transfected cells; host or cells: BaF3
T3 sequence (P00533 25-1210 L858R): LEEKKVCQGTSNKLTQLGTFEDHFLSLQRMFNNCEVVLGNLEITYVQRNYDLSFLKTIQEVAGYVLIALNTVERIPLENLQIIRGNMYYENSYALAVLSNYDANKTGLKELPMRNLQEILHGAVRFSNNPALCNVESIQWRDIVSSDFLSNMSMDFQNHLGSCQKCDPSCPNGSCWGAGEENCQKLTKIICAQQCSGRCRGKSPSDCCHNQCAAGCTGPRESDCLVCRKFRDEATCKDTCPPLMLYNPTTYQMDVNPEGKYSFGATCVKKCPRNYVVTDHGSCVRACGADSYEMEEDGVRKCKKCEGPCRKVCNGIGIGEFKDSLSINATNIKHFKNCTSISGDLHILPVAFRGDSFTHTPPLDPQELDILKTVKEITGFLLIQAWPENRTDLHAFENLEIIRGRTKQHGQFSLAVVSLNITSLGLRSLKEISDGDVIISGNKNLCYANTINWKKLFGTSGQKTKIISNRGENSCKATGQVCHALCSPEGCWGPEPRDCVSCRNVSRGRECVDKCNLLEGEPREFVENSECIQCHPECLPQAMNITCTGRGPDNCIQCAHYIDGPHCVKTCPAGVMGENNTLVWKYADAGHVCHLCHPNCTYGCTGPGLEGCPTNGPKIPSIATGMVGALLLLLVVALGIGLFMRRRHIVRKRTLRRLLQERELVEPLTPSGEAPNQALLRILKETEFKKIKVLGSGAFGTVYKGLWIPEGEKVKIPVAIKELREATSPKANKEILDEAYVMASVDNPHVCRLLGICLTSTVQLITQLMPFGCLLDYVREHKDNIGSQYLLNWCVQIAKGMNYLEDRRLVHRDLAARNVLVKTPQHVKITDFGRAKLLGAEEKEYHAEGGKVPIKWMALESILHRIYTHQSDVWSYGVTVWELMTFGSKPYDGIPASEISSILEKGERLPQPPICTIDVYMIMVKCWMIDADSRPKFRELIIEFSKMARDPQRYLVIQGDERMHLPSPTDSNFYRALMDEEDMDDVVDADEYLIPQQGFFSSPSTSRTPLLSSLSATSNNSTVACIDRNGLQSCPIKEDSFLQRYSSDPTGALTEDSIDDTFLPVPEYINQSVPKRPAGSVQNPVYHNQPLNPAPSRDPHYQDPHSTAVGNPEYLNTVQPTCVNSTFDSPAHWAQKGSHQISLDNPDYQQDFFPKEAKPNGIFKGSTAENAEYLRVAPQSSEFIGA
The note with it: BaF3 cells stably transfected with EGFR L858R, read-out: IC50, growth inhibition, L858R. Put shortly: as §1

Experiment [4] concerns the target T4, various mutants of kinase EGFR (BaF3 cell lines stably transfected with kinase) (Homo sapiens, UniProt P00533, L858R/T790M).
T4 construct: expressed in transfected cells; host or cells: BaF3
The note with it: BaF3 cells stably transfected with EGFR L858R/T790M, read-out: IC50, growth inhibition, L858R/T790M. Put shortly:
as §1

Experiment [5] concerns the target T5, various mutants of kinase EGFR (BaF3 cell lines stably transfected with kinase) (Homo sapiens, UniProt P00533, T790M/C797S, form not given).
T5 construct: other: BaF3 cells stably transfected with EGFR Δ19Del/T790M/C797S; MTS, 48; other: BaF3 cell line stably transfected with EGFR Δ19Del/T790M/C7
The note with it: BaF3 cells stably transfected with EGFR Δ19Del/T790M/C797S, read-out: IC50, growth inhibition, Δ19Del/T790M/C797S. Summed up:
as §1

For experiment [6], the target named is T6, various mutants of kinase EGFR (BaF3 cell lines stably transfected with kinase) (Homo sapiens, UniProt P00533, T790M, form not given).
T6 construct: other: BaF3 cells stably transfected with EGFR Δ19Del/T790M; MTS, 48 h; other: BaF3 cell line stably transfected with EGFR Δ19Del/T790M; MTS, 48
T6 sequence (P00533 with tags, fused parts or gaps DEL746-750/T790M, form open): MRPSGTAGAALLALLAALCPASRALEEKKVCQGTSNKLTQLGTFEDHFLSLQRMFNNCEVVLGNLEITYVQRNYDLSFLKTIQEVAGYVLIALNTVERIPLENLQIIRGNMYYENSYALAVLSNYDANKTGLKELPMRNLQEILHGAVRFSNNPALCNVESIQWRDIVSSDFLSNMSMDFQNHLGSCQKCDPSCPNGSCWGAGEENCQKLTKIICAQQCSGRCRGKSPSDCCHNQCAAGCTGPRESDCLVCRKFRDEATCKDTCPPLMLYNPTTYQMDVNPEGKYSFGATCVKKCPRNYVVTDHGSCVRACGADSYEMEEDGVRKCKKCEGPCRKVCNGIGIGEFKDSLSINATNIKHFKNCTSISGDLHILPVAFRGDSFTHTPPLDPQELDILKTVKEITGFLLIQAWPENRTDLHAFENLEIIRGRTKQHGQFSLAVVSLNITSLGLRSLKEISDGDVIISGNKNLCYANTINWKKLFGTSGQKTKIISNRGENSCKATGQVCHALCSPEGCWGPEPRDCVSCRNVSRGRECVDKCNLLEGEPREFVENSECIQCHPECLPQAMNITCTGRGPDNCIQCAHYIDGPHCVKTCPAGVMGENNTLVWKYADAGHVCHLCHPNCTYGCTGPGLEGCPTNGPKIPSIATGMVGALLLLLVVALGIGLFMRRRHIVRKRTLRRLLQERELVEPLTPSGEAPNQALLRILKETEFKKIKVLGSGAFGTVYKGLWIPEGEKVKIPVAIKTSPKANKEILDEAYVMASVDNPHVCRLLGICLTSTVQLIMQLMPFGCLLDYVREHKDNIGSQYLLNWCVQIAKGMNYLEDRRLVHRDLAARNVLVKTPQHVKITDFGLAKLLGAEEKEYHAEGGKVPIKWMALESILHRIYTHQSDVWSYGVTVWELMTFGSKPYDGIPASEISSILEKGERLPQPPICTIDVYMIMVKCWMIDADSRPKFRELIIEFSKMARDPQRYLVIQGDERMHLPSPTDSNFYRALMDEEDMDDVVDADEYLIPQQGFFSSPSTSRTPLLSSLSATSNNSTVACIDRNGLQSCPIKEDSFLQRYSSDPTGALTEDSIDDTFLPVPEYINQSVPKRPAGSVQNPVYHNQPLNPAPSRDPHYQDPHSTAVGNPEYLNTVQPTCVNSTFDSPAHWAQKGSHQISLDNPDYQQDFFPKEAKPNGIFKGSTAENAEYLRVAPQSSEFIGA
The note with it: BaF3 cells stably transfected with EGFR Δ19Del/T790M, read-out: IC50, growth inhibition, Δ19Del/T790M. Summed up:
as §1

T5 sequence (P00533 with tags, fused parts or gaps DEL746-750/T790M/C797S, form open): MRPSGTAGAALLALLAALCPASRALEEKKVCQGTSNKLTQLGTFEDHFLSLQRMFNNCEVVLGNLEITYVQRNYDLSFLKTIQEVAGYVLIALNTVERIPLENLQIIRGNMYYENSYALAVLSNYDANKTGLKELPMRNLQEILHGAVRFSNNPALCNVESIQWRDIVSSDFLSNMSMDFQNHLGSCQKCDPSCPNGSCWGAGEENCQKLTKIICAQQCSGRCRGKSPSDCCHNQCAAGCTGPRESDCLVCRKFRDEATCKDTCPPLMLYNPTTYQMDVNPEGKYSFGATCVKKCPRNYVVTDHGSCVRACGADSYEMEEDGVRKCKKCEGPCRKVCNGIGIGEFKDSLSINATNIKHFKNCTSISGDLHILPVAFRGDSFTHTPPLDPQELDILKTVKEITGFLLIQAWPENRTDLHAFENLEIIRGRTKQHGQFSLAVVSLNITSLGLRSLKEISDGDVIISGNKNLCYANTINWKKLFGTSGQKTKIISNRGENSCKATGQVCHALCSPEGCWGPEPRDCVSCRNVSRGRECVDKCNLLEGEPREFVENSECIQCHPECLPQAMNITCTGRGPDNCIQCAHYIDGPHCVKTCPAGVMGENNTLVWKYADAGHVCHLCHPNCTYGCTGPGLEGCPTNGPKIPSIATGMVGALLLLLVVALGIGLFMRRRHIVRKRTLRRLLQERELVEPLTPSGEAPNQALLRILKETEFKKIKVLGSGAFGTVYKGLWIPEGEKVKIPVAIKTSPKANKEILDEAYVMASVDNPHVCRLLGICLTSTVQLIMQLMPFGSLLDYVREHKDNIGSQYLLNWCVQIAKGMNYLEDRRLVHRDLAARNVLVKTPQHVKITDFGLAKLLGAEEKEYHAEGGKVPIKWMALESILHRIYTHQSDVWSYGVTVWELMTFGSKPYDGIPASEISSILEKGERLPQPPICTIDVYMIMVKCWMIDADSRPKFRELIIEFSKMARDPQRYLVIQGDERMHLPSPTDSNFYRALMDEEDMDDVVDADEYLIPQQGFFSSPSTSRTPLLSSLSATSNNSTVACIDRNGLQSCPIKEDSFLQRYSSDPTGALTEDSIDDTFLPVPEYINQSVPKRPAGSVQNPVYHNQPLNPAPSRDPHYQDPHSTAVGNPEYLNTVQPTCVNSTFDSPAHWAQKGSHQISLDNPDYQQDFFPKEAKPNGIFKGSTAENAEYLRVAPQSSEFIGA

As for `COc1cc(N2CCC(N3CCN(C)CC3)CC2)c(CC2CC2)cc1Nc1ncc(C(F)(F)F)c(Nc2ccc3nccnc3c2N(C)S(C)(=O)=O)n1` [Compound I-203], the IC50 was 50 to 500 nM in experiment [1]; 50 to 500 nM in experiment [2]; 50 to 500 nM in experiment [3]; no more than 50 nM in experiment [4]; no more than 50 nM in experiment [5]; no more than 50 nM in experiment [6].

For the compound `COc1cc(N2CCC(N3CCN(C)CC3)CC2)c(Cc2ccccc2)cc1Nc1ncc(C(F)(F)F)c(Nc2ccc3nccnc3c2N(C)S(C)(=O)=O)n1` [Compound I-204], the IC50 in experiment [1], in experiment [2], in experiment [3], in experiment [4], in experiment [5] and in experiment [6] was 500 to 2500 nM throughout.

In the case of `COc1cc(N2CCC(N(C)C)CC2)c(C)cc1Nc1ncc(C(F)(F)F)c(Nc2ccc3nccnc3c2N(C)S(C)(=O)=O)n1` [Compound I-205], the IC50 in experiment [1], in experiment [2], in experiment [3], in experiment [4], in experiment [5] and in experiment [6] was no more than 50 nM throughout.

`CCc1cc(Nc2ncc(C(F)(F)F)c(Nc3ccc4nccnc4c3N(C)S(C)(=O)=O)n2)c(OC)cc1N1CCC(N(C)C)CC1` [Compound I-206]: the IC50 in experiment [1], in experiment [2], in experiment [3], in experiment [4], in experiment [5] and in experiment [6] was no more than 50 nM in each case.

Take `COc1cc(N2CCN(C)CC2)c(C)cc1Nc1ncc(C(F)(F)F)c(Nc2ccc3nccnc3c2N(C)S(C)(=O)=O)n1` [Compound I-207]: the IC50 is 50 to 500 nM in experiment [1]; no more than 50 nM in experiment [2]; 50 to 500 nM in experiment [3]; no more than 50 nM in experiment [4]; no more than 50 nM in experiment [5]; no more than 50 nM in experiment [6].

For `CCc1cc(Nc2ncc(C(F)(F)F)c(Nc3ccc4nccnc4c3N(C)S(C)(=O)=O)n2)c(OC)cc1N1CCN(C)CC1` [Compound I-208], the IC50 was 50 to 500 nM in experiment [1]; no more than 50 nM in experiment [2]; no more than 50 nM in experiment [3]; no more than 50 nM in experiment [4]; no more than 50 nM in experiment [5]; no more than 50 nM in experiment [6].

In the case of `COc1cc(N2CCC(N(C)C)C2)c(C)cc1Nc1ncc(C(F)(F)F)c(Nc2ccc3nccnc3c2N(C)S(C)(=O)=O)n1` (stereo not drawn) [Compound I-209], the IC50 in experiment [1] was 50 to 500 nM; in experiment [2] it was no more than 50 nM; in experiment [3], no more than 50 nM; in experiment [4], no more than 50 nM; in experiment [5] it was no more than 50 nM; in experiment [6], no more than 50 nM.

Consider `CCc1cc(Nc2ncc(C(F)(F)F)c(Nc3ccc4nccnc4c3N(C)S(C)(=O)=O)n2)c(OC)cc1N1CCC(N(C)C)C1` (stereo not drawn) [Compound I-210], for which the IC50 in experiment [1], in experiment [2], in experiment [3], in experiment [4], in experiment [5] and in experiment [6] was no more than 50 nM each time.

With `CCN(c1c(Nc2nc(Nc3ccc(N4CCC(N5CCN(C)CC5)CC4)cc3OC)ncc2Br)ccc2nccnc12)S(C)(=O)=O` [Compound I-211], the IC50 in experiment [1] is 50 to 500 nM; in experiment [2], no more than 50 nM; in experiment [3], no more than 50 nM; in experiment [4], no more than 50 nM; in experiment [5] it was no more than 50 nM; in experiment [6], no more than 50 nM.

Turning to `CCc1cc(Nc2ncc(Br)c(Nc3ccc4nccnc4c3N(CC)S(C)(=O)=O)n2)c(OC)nc1N1CCC(N2CCN(C)CC2)CC1` [Compound I-212], the IC50 in experiment [1] is 50 to 500 nM; in experiment [2], no more than 50 nM; in experiment [3], 50 to 500 nM; in experiment [4] it was no more than 50 nM; in experiment [5], no more than 50 nM; in experiment [6], no more than 50 nM.

As to `CCN(c1c(Nc2nc(Nc3cc(CC4CC4)c(N4CCC(N5CCN(C)CC5)CC4)cc3OC)ncc2Br)ccc2nccnc12)S(C)(=O)=O` [Compound I-213], the IC50 in experiment [1], in experiment [2], in experiment [3], in experiment [4], in experiment [5] and in experiment [6] was no more than 50 nM throughout.

Take `CCS(=O)(=O)N(C)c1c(Nc2nc(Nc3ccc(N4CCC(N5CCN(C)CC5)CC4)cc3OC)ncc2Br)ccc2nccnc12` [Compound I-214]: the IC50 in experiment [1] is 50 to 500 nM; in experiment [2], 50 to 500 nM; in experiment [3], 50 to 500 nM; in experiment [4], no more than 50 nM; in experiment [5], no more than 50 nM; in experiment [6], no more than 50 nM.

Consider `COc1cc(N2CCC(N3CCN(C)CC3)CC2)ccc1Nc1ncc(Br)c(Nc2ccc3nccnc3c2N(C)S(=O)(=O)C2CC2)n1` [Compound I-215], for which the IC50 is 50 to 500 nM in experiment [1]; no more than 50 nM in experiment [2]; 50 to 500 nM in experiment [3]; no more than 50 nM in experiment [4]; no more than 50 nM in experiment [5]; no more than 50 nM in experiment [6].

With `COc1nc(N2CCC(N3CCN(C)CC3)CC2)ccc1Nc1ncc(Br)c(Nc2ccc3nccnc3c2N(C)S(=O)(=O)C2CC2)n1` [Compound I-216], the IC50 fell in the range of 500 to 2500 nM in experiment [1]; 50 to 500 nM in experiment [2]; 500 to 2500 nM in experiment [3]; 500 to 2500 nM in experiment [4]; 50 to 500 nM in experiment [5]; 500 to 2500 nM in experiment [6].

For `CCc1cc(Nc2ncc(Br)c(Nc3ccc4nccnc4c3N(C)S(=O)(=O)C3CC3)n2)c(OC)nc1N1CCC(N2CCN(C)CC2)CC1` [Compound I-218], the IC50 in experiment [1] was 50 to 500 nM; in experiment [2], no more than 50 nM; in experiment [3], 50 to 500 nM; in experiment [4], no more than 50 nM; in experiment [5], no more than 50 nM; in experiment [6] it was no more than 50 nM.

For `C=Cc1cc(Nc2ncc(Br)c(Nc3ccc4nccnc4c3N(C)S(=O)(=O)C3CC3)n2)c(OC(F)(F)F)cc1N1CCC(N2CCN(C)CC2)CC1` [Compound I-219], the IC50 in experiment [1] was 50 to 500 nM; in experiment [2] it was 50 to 500 nM; in experiment [3], 50 to 500 nM; in experiment [4] it was 50 to 500 nM; in experiment [5] it was no more than 50 nM; in experiment [6] it was no more than 50 nM.

For `COc1cc(N2CCC(N3CCN(C)CC3)CC2)c(CC2CC2)cc1Nc1ncc(Br)c(Nc2ccc3nccnc3c2N(C)S(=O)(=O)C2CC2)n1` [Compound I-220], the IC50 in experiment [1] is 50 to 500 nM; in experiment [2], no more than 50 nM; in experiment [3] it was 50 to 500 nM; in experiment [4], 50 to 500 nM; in experiment [5] it was no more than 50 nM; in experiment [6], 50 to 500 nM.

As to `COc1cc(N2CCC(N(C)C)CC2)c(C)cc1Nc1ncc(Br)c(Nc2ccc3nccnc3c2N(C)S(=O)(=O)C2CC2)n1` [Compound I-221], the IC50 in experiment [1] is 50 to 500 nM; in experiment [2], no more than 50 nM; in experiment [3], 50 to 500 nM; in experiment [4], no more than 50 nM; in experiment [5] it was no more than 50 nM; in experiment [6], no more than 50 nM.

Take `COc1cc(N2CCC(N(C)C)C2)c(C)cc1Nc1ncc(Br)c(Nc2ccc3nccnc3c2N(C)S(=O)(=O)C2CC2)n1` (stereo not drawn) [Compound I-222]: the IC50 in experiment [1] was 50 to 500 nM; in experiment [2], no more than 50 nM; in experiment [3] it was 50 to 500 nM; in experiment [4], no more than 50 nM; in experiment [5], no more than 50 nM; in experiment [6], no more than 50 nM.
